Test system: P. falciparum HB3 in RBCs, SYBR Green DNA fluorescence
Assay: antimalarial activity against intraerythrocytic HB3 parasites – HB3 strain, red blood cells, SYBR Green, cherry-picked, dose response (AID 652041);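 note: parasites exposed to compound for 72 hours before the DNA read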

c1ccc(CSc2ccc(-c3ccccn3)nn2)nc1
AC35: 23 µM

CCCCC(CC)c1nnc(NC(=O)c2cccs2)s1 (configuration not stated)
AC35: 37.3 µM

CCCCNC(=S)N/N=C1\CCCCc2ccccc21
AC35: 16.8 µM

O=C(N/N=C/c1cc(Cl)cc([N+](=O)[O-])c1O)c1ccccc1NS(=O)(=O)c1cccs1
AC35: 41.5 µM

O=C1c2cc(F)ccc2-n2c1nc1ccccc1c2=O
AC35: 0.0251 µM

COc1cnc(-c2ccccn2)nc1Oc1ccc(C(C)(C)C)cc1
AC35: 4.82 µM

CCCCOC(=O)/C=C/c1ccc(OC(=O)OC)c(OC(=O)OC)c1
AC35: 11 µM

Cc1cccc(Nc2nc(-c3ccc(O)cc3O)cs2)n1
AC35: 18.6 µM

Cc1ccc2c(C)c3ccc4ccccc4c3c[n+]2c1
AC35: 0.0701 µM

CCOC(=O)c1cc2c(=Cc3ccc(N(C)C)cc3)c3ccccc3n2[n+]1C
AC35: 2.44 µM

C=CCN(CC=C)C(=S)NC(=O)c1ccc(C)c(Br)c1
AC35: 9.72 µM

CCCn1c(=O)c(C(=O)NCc2ccc(OC)c(OC)c2)c(O)c2ccccc21
AC35: 21.8 µM

COc1cccc(CC(=O)Nc2ccc3nc(C)sc3c2)c1
AC35: 43.9 µM

C=CCNc1nc(-c2ccccn2)nnc1-c1ccccc1
AC35: 2.22 µM

CCCCNc1c(-c2cccc(-c3ccc(OC)cc3)c2)nc2ccc(C)cn12
AC35: 1.65 µM

COc1cc(NS(=O)(=O)c2ccc(C)cc2)c2ncccc2c1
AC35: 6.38 µM

COc1ccc(-c2cc(C(=O)N3CCN(c4ccccc4F)CC3)c3ccccc3n2)c(OC)c1
AC35: 6.74 µM

CN(C)c1nc(SCc2ccc(Cl)cc2)nc2c1CCCC2
AC35: 33.5 µM

CC1(C)C=Cc2c(ccc3c2OC[C@@H](c2ccc(O)cc2O)C3)O1
AC35: 13.8 µM

O=C(OCC(=O)C12CC3CC(CC(C3)C1)C2)c1ccc(O)cc1
AC35: 23.4 µM

Cc1ccc(C(=O)C(SC(C)(C)C)n2cncn2)cc1 (configuration not stated)
AC35: 38.7 µM

CC1(C)C2CCC1(C)C(OC(=O)c1ccc(O)cc1)C2 (configuration not stated)
AC35: 11.6 µM

O=C(NCCC1=CCCCC1)c1c(O)nc2sccn2c1=O
AC35: 16.2 µM

C=C(C)COc1ccc(-c2[nH]ncc2-c2ccccc2)c(O)c1
AC35: 1.89 µM

Cc1ccc(Cl)cc1NC1=C/C(=N\S(=O)(=O)c2cccs2)c2ccccc2C1=O
AC35: 0.119 µM

CC1CCN(c2nc(-c3ccncc3)nc3ccccc23)CC1
AC35: 8.17 µM

Cc1c(Cc2ccccc2)c(NCCN(C)C)n2c(nc3ccccc32)c1C#N
AC35: 6.66 µM

COc1ccc(/C=N/Nc2cc(C)nc(-n3nc(C)cc3C)n2)cc1
AC35: 1.54 µM

O=[N+]([O-])c1ccc2c(OCc3nnc(-c4ccccc4Br)o3)ncnc2c1
AC35: 21.8 µM

S=C(Nc1ccc(Oc2ccccc2)cc1)NC1CCCCCC1
AC35: 4.03 µM

O=C(NOC(=O)c1ccccc1)c1ccccc1
AC35: 20.1 µM

Cc1cc(C(=O)COC(=O)Cc2n[nH]c(=O)c3ccccc23)c(C)n1-c1cccc(C(F)(F)F)c1
AC35: 4.22 µM

NC(=O)N=Nc1c2[nH]c3ccccc3nc-2c2ccccc12
AC35: 21.1 µM

Cc1ccsc1/C=C/c1ccc2cccc(O)c2n1
AC35: 11.9 µM

COC(=O)COC(=O)c1ccccc1NC(=O)c1ccccc1
AC35: 25.8 µM

Nc1nc(-c2ccccc2)c(-c2ccc([N+](=O)[O-])cc2)s1
AC35: 39.6 µM

CCCCNc1c(-c2cccc(Sc3ccc(OC)cc3)c2)nc2ccccn12
AC35: 8.77 µM

CNc1ccc2oc(C[C@H]3O[C@@]4(CC[C@H]3C)O[C@H]([C@H](C)C(=O)c3ccc[nH]3)[C@H](C)C[C@H]4C)nc2c1C(=O)O
AC35: 0.833 µM

CN(C)c1ccc(C=c2c3cc(O)ccc3n3c2cc(-c2ccccc2)[n+]3C)cc1
AC35: 0.247 µM

CCCCNc1c(-c2ccc(-c3ccc(OC)cc3)c(OC)c2)nc2ccccn12
AC35: 4.29 µM

CCN1C(=O)C(CC(=O)Nc2ccccc2Cl)N(NC(=O)c2cccc(F)c2)C1=S (configuration not stated)
AC35: 21.8 µM

COc1ccccc1C1CCN(C(=O)c2ccc(Cl)cc2)CC1
AC35: 28.6 µM

Clc1ccc(C(Cn2ccnc2)OCc2c(Cl)cccc2Cl)c(Cl)c1 (configuration not stated)
AC35: 2.36 µM

CCC(C)c1ccc(NC(=S)NCCn2cc(Br)cn2)cc1 (configuration not stated)
AC35: 10.5 µM

O=Cc1cc(N=Nc2ccccc2Cl)ccc1O
AC35: 2.27 µM

CN(C)c1ccc(C=c2c3ccccc3n3c2c2c([n+]3C)CCCC2)cc1
AC35: 0.228 µM

CCn1c(CNc2ccc(Cl)cc2)nnc1SCc1ccc(Cl)cc1
AC35: 38.6 µM

O=C(c1ccc(Cl)cc1)N1CCN(c2ccc(F)cc2)CC1
AC35: 35.2 µM

Cc1ccc(Nc2cc(C)nn2-c2nc(C)cc(C)n2)cc1
AC35: 2.75 µM

Cc1cccc(N2CCN(C(=O)C3COc4ccccc4O3)CC2)c1C (configuration not stated)
AC35: 38.9 µM

O=C(CN1CC[n+]2c(-c3cccs3)csc21)c1ccc(-c2ccccc2)cc1
AC35: 1.46 µM

Fc1ccc(CCNC(=S)Nc2ccc(F)c(Cl)c2)cc1
AC35: 14.1 µM

O=C(Oc1c(Cl)cc(Cl)c2cccnc12)c1cccs1
AC35: 19 µM

O/N=C/c1cc(Br)ccc1OCc1ccccc1F
AC35: 29.2 µM

CCOC(=O)c1cnc(-n2nc(C)cc2C)nc1NC1CCCC1
AC35: 4.23 µM

O=S(=O)(Nc1ccccc1)c1ccc(Oc2ncc(C(F)(F)F)cc2Cl)cc1
AC35: 25.1 µM

C=CCn1c(-c2cc(-c3ccc(C)cc3)nc3ccccc23)n[nH]c1=S
AC35: 14.1 µM

CC(=O)C1=C(c2ccc(Br)cc2)C(=O)c2ccccc2C1=O
AC35: 0.472 µM

O=C(NC(=S)N(CCc1ccccc1)CCc1ccccc1)c1ccco1
AC35: 13.3 µM

COc1ccc(O)c(C(=O)CC(=O)c2ccc(F)cc2)c1
AC35: 16.1 µM

CCC1=NN(C(=O)c2cccc(Br)c2)C(O)(c2ccc(Br)cc2)C1 (configuration not stated)
AC35: 12.3 µM

CCCC(C)Sc1nc2c([nH]1)c(=S)n(C)c(=O)n2C (configuration not stated)
AC35: 6.67 µM

O=C1c2cccc(Cl)c2C(=O)c2c1cccc2N1CCCC1
AC35: 20.9 µM

Cc1ccccc1Oc1nc(-c2ccccn2)nc2ccccc12
AC35: 4.4 µM

O=C(c1ccccc1)c1coc2c1C(=O)c1ccccc1C2=O
AC35: 1.49 µM

CCn1c2ccc(C)cc2c2nc3cc(C(=O)O)ccc3nc21
AC35: 37.1 µM

Cc1ccc(C)c(/C=C/C(=O)c2ccccc(=O)c2O)c1
AC35: 8.27 µM

COc1cnc(-c2ccccn2)nc1Sc1ccccc1
AC35: 9.03 µM

NC(=Nc1nc(-c2ccccn2)cc2ccccc12)c1ccccn1
AC35: 0.22 µM

CC(C)N1CCN(c2ccc(OCC3COC(Cn4cncn4)(c4ccc(Cl)cc4Cl)O3)cc2)CC1 (configuration not stated)
AC35: 4.53 µM

CN(c1ccccc1)c1nc(N2CCCC2)nc(-n2ccnc2)n1
AC35: 11.1 µM

CC(C)C(=O)NC(c1cccc([N+](=O)[O-])c1)c1ccc2cccnc2c1O (configuration not stated)
AC35: 0.826 µM

O=C(NCc1ccncc1)c1ccccc1Nc1ccc(SC(F)F)cc1
AC35: 21.5 µM

CC(=O)C1=C(c2cccc([N+](=O)[O-])c2)N(C(C)=O)n2c(C)nnc2S1
AC35: 0.59 µM

CC(=O)Oc1ccc(OC(C)=O)c(SCCCCCCl)c1
AC35: 2.56 µM

Cc1ccc(NC2(c3nnnn3-c3c(C)cccc3C)CCCCC2)cc1
AC35: 18 µM

O=c1c2ccccc2nc(-c2ccc(-c3ccccc3)cc2)n1-c1ccncc1
AC35: 18.3 µM

Cn1ccc(=Nc2ccc(NC(=O)c3ccc(N=c4ccn(C)c5ccc([N+](=O)[O-])cc45)cc3)cc2)cc1
AC35: < 0.0235 µM

COc1ccc(C(=O)On2c(-c3ccc(Br)cc3)nc3ccccc3c2=O)cc1
AC35: 9.45 µM

O=C(Nc1ccc(Cl)cc1C(=O)Nc1ccc(Br)cn1)c1ccco1
AC35: 16.5 µM

O/N=C(\c1ccc(Cl)cc1Cl)c1ncc(C(F)(F)F)cc1Cl
AC35: 11.6 µM

CCCn1nc(C(=O)N2CCN(S(=O)(=O)c3ccc(C)c(C)c3)CC2)c2ccccc2c1=O
AC35: 8.13 µM

Cc1cc(Nc2ccccc2)nn1C(=O)c1ccccc1
AC35: 43.1 µM

CCC(Oc1ccc(Br)cc1Cl)C(=O)Nc1nnc(C2CC2)s1 (configuration not stated)
AC35: 33.3 µM

CCc1cc(SC#N)cc(C)c1NC(=O)CCl
AC35: 7.66 µM

c1ccc(-c2ccc(SCc3cccnc3)nn2)nc1
AC35: 35.5 µM

CCCS(=O)(=O)c1c(S(=O)(=O)CCC)c2c(C)cccn2c1C(=O)N/N=C/c1cc(O)cc(O)c1
AC35: 10.5 µM

O=C(N/N=C/c1ccc[nH]1)c1sc2ccccc2c1Cl
AC35: 15.8 µM

CCCCC(=O)NC(c1ccco1)c1cc(Cl)c2cccnc2c1O (configuration not stated)
AC35: 1.62 µM

Cc1[nH]n(-c2ccccc2)c(=O)c1/C=N/Nc1nncc(-c2ccccc2)n1
AC35: 1.97 µM

Oc1c(CN2CCCC2)cc(COCc2ccccc2)c2cccnc12
AC35: 7.31 µM

Cc1ccc(Sc2cc(C)nc(-c3ccccn3)n2)cc1
AC35: 6.03 µM

O=[N+]([O-])c1cccc(C=NNc2ccc3ccccc3n2)c1O
AC35: 6.73 µM

C[C@@]12CCC3[C@@](CCC4[C@@]3(C)CCC[C@@]4(C)C(=O)NCc3ccccc3)(CC1=O)C2 (some centres not stated)
AC35: 21.7 µM

CCN(CC)C(=O)CSc1ncnc2sc(-c3ccccc3)cc12
AC35: 36.6 µM

Cn1nc(C(F)(F)F)c(C#N)c1N1CCN(c2ccc(F)cc2)CC1
AC35: 18.7 µM

CC1=CC(C)(C)N(S(=O)(=O)c2ccc(C)cc2)c2ccc(C)cc21
AC35: 18.4 µM

Nc1cc2c3ccccc3ccc2c2ccccc12
AC35: 0.249 µM

CC(=O)Nc1cccc(NC(=O)CSc2ccc(-c3ccccn3)nn2)c1
AC35: 17 µM

COc1cc([N+](=O)[O-])cc(/C=N/NC(=O)c2cncc(Br)c2)c1O
AC35: 16.8 µM

OCCN(CCO)c1cc2c3ccccc3ccc2c2ccccc12
AC35: 1.21 µM

CC12CC3(C)CC(C)(C1)CC(NC(=O)N1CCCC1)(C2)C3
AC35: 14.9 µM

COc1cccc(/C=N/NC(=O)c2nc(-c3ccccc3)cc(-c3ccccc3)n2)c1O
AC35: 7.16 µM

CCOC(=O)c1ccc(NC(=S)N(Cc2cccnc2)Cc2ccco2)cc1
AC35: 28.1 µM

CC(C)=CCc1c(O)ccc(C(=O)Cc2ccccc2)c1O
AC35: 11 µM

O=C(CSc1ccc(-c2ccccn2)nn1)NCc1ccc(F)cc1
AC35: 37.5 µM

O=C(Nc1cc(Oc2ccc(Cl)cc2)cc([N+](=O)[O-])c1)c1ccco1
AC35: 2.14 µM

CC(NC(=S)NC1CCC(C(C)(C)C)CC1)c1ccccc1 (configuration not stated)
AC35: 8.88 µM

CN(Cc1ccc(Cl)s1)C(=O)CCl
AC35: 5.21 µM

CCC(=O)NC(c1ccco1)c1cc(Cl)c2cccnc2c1O (configuration not stated)
AC35: 0.185 µM

CCN(CC)c1ccc(/C=N/NC(=O)c2c(Cl)cnn2C)c(O)c1
AC35: 2.66 µM

Cc1ccc(O)c(-c2cc(-c3ccccc3C)[nH]n2)c1
AC35: 6.3 µM

O=[N+]([O-])c1cc(C(F)(F)F)ccc1NCCc1c[nH]c2ccc(O)cc12
AC35: 24.6 µM

CC(C)C(=O)NC(c1ccco1)c1ccc2cccnc2c1O (configuration not stated)
AC35: 1.77 µM

Cc1ccc(Sc2ccc(NC(=O)CCl)cc2)cc1C
AC35: 0.321 µM

CC(C)(C)C(O)C(Cc1ccccc1Cl)n1cncn1 (configuration not stated)
AC35: 39.3 µM

C=C(C)COc1ccc(-c2[nH]ncc2-c2ccc(Br)cc2)c(O)c1
AC35: 2.25 µM

Reference: PubChem BioAssay AID652041 (Broad Institute, 2013)
